Test results as given in ChEMBL document CHEMBL4507270 (2021).

Tests used:
[1] = system: Tyrosine-protein kinase ABL1 (Homo sapiens), P00519 [Q252H]
[2] = system: Tyrosine-protein kinase ABL1 (Homo sapiens), P00519 [Y253F]
[3] = target: RAC-alpha serine/threonine-protein kinase (Homo sapiens) (UniProt P31749)
[4] = target: Ankyrin repeat and protein kinase domain-containing protein 1 (Homo sapiens) (UniProt Q8NFD2)
[5] = target: Tyrosine-protein kinase receptor UFO (Homo sapiens) (UniProt P30530)
[6] = target: Calcium/calmodulin-dependent protein kinase type 1D (Homo sapiens) (UniProt Q8IU85)
[7] = target: Calcium/calmodulin-dependent protein kinase type 1G (Homo sapiens) (UniProt Q96NX5)
[8] = target: Calcium/calmodulin-dependent protein kinase kinase 2 (Homo sapiens) (UniProt Q96RR4)
[9] = target: Cyclin-dependent kinase 11A (Homo sapiens) (UniProt Q9UQ88)
[10] = target: Cyclin-dependent kinase 4 (Homo sapiens) (UniProt P11802)
[11] = target: Dual specificity tyrosine-phosphorylation-regulated kinase 2 (Homo sapiens) (UniProt Q92630)
[12] = system: Epidermal growth factor receptor (Homo sapiens), P00533 [UNDEFINED MUTATION]
[13] = target: Ephrin type-A receptor 6 (Homo sapiens) (UniProt Q9UF33)
[14] = system: Receptor-type tyrosine-protein kinase FLT3 (Homo sapiens), P36888 [D835H]
[15] = system: Receptor-type tyrosine-protein kinase FLT3 (Homo sapiens), P36888 [UNDEFINED MUTATION]
[16] = system: Receptor-type tyrosine-protein kinase FLT3 (Homo sapiens), P36888 [R834Q]
[17] = target: Receptor-type tyrosine-protein kinase FLT3 (Homo sapiens) (UniProt P36888)
[18] = target: Tyrosine-protein kinase JAK1 (Homo sapiens) (UniProt P23458)
[19] = system: Mast/stem cell growth factor receptor Kit (Homo sapiens), P10721 [A829P]
[20] = target: Serine/threonine-protein kinase LATS2 (Homo sapiens) (UniProt Q9NRM7)
[21] = target: LIM domain kinase 2 (Homo sapiens) (UniProt P53671)
[22] = target: Serine/threonine-protein kinase 10 (Homo sapiens, UniProt O94804)
[23] = target: MAP/microtubule affinity-regulating kinase 3 (Homo sapiens) (UniProt P27448)
[24] = system: Hepatocyte growth factor receptor (Homo sapiens), P08581 [Y1235D]
[25] = target: Muscle, skeletal receptor tyrosine-protein kinase (Homo sapiens) (UniProt O15146)
[26] = target: Myosin light chain kinase family member 4 (Homo sapiens) (UniProt Q86YV6)
[27] = target: Mitogen-activated protein kinase 14 (Homo sapiens) (UniProt Q16539)
[28] = target: Mitogen-activated protein kinase 12 (Homo sapiens) (UniProt P53778)
[29] = target: Serine/threonine-protein kinase PAK 2 (Homo sapiens) (UniProt Q13177)
[30] = target: Serine/threonine-protein kinase PAK 6 (Homo sapiens) (UniProt Q9NQU5)
[31] = target: Cyclin-dependent kinase 2 homolog (Plasmodium falciparum (isolate 3D7)) (UniProt P61075)
[32] = target: Phosphorylase b kinase regulatory subunit alpha, liver isoform (Homo sapiens) (UniProt P46019)
[33] = system: Phosphatidylinositol 4,5-bisphosphate 3-kinase catalytic subunit alpha isoform (Homo sapiens), P42336 [I800L]
[34] = system: Phosphatidylinositol 4,5-bisphosphate 3-kinase catalytic subunit alpha isoform (Homo sapiens), P42336 [M1043I]
[35] = target: cGMP-dependent protein kinase 1 (Homo sapiens) (UniProt Q13976)
[36] = target: cGMP-dependent protein kinase 2 (Homo sapiens) (UniProt Q13237)
[37] = target: Ribosomal protein S6 kinase alpha-3 (Homo sapiens) (UniProt P51812)
[38] = target: Ribosomal protein S6 kinase alpha-6 (Homo sapiens) (UniProt Q9UK32)
[39] = target: Serine/threonine-protein kinase Sgk3 (Homo sapiens) (UniProt Q96BR1)
[40] = target: SRSF protein kinase 2 (Homo sapiens) (UniProt P78362)
[41] = target: Serine/threonine-protein kinase 35 (Homo sapiens) (UniProt Q8TDR2)
[42] = target: TRAF2 and NCK-interacting protein kinase (Homo sapiens) (UniProt Q9UKE5)
[43] = target: Serine/threonine-protein kinase 32B (Homo sapiens) (UniProt Q9NY57)
[44] = target: 5-hydroxytryptamine receptor 1B (Homo sapiens) (UniProt P28222); conditions: Compound concentration 10.0 uM
[45] = Compound concentration 1000.0 nM
[46] = Compound concentration 100.0 nM

cGMP-dependent protein kinase 2 (Homo sapiens), sequence (Q13237 whole entry): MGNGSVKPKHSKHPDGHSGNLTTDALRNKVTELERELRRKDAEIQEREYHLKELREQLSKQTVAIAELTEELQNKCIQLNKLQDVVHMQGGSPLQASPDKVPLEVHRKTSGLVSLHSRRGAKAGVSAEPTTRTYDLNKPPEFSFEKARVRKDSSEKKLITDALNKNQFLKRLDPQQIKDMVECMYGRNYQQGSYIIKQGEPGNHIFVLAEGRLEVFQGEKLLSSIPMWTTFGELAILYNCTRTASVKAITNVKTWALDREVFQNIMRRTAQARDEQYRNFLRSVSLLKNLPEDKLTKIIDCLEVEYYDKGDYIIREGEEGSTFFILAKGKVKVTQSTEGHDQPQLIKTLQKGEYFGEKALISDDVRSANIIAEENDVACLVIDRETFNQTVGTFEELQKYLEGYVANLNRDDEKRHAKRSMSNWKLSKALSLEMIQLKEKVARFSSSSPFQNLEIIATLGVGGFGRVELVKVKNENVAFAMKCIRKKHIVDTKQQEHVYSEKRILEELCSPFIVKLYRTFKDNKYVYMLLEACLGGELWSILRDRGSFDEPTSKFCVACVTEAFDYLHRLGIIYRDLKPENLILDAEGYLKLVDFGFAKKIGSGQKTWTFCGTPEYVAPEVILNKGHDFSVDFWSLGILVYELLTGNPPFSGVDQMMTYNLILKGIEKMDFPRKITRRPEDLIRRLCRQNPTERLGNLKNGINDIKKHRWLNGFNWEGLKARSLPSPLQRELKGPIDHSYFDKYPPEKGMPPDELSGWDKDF
Serine/threonine-protein kinase 35 (Homo sapiens), sequence (Q8TDR2 whole entry): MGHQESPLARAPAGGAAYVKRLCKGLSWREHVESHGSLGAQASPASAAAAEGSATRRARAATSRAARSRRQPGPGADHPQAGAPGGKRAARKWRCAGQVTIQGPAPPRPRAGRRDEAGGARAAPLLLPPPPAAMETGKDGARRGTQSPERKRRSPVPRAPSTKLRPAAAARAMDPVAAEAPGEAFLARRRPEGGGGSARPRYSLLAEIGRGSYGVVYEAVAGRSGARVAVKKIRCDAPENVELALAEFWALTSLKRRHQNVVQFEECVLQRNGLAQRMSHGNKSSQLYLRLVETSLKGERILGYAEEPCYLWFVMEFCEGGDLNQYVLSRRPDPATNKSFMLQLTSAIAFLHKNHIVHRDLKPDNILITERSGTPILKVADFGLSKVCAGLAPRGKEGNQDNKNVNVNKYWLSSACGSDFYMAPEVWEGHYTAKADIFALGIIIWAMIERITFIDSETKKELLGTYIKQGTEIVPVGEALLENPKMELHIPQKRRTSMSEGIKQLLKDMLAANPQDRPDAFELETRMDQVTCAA
Serine/threonine-protein kinase 32B (Homo sapiens), sequence (Q9NY57 whole entry): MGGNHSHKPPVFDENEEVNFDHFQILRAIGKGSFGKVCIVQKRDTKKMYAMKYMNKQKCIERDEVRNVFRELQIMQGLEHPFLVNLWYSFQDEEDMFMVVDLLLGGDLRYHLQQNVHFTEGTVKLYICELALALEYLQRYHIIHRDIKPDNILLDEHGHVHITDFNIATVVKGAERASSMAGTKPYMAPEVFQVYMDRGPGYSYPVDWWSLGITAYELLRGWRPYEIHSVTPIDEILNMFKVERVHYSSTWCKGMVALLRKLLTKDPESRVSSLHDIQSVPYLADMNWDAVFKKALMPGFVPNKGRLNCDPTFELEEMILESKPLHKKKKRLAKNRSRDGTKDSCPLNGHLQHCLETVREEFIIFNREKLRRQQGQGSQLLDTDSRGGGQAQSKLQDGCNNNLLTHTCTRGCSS
Ankyrin repeat and protein kinase domain-containing protein 1 (Homo sapiens), sequence (Q8NFD2 whole entry, the tested form may be a part): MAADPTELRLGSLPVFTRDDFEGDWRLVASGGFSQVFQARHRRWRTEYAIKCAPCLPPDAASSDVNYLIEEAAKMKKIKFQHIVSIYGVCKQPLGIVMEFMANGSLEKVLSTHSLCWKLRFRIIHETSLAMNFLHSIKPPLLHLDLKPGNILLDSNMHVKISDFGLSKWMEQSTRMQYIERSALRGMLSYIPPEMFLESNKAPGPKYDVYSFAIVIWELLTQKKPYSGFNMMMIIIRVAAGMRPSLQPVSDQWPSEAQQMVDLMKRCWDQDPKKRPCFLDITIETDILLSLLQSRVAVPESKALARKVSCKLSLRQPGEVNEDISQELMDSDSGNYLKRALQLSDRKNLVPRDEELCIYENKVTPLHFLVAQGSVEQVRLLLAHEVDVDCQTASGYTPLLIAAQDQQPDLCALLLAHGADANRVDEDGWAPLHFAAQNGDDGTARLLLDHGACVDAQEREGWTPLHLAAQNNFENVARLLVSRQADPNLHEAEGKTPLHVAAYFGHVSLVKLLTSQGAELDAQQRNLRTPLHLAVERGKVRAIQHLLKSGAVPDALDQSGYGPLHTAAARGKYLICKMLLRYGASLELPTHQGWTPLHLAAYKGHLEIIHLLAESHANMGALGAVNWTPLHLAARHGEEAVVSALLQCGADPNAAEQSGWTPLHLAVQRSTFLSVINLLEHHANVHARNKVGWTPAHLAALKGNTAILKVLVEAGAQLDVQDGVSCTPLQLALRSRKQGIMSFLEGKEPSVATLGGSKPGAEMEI
Cyclin-dependent kinase 2 homolog (Plasmodium falciparum (isolate 3D7)), sequence (P61075 whole entry, canonical isoform): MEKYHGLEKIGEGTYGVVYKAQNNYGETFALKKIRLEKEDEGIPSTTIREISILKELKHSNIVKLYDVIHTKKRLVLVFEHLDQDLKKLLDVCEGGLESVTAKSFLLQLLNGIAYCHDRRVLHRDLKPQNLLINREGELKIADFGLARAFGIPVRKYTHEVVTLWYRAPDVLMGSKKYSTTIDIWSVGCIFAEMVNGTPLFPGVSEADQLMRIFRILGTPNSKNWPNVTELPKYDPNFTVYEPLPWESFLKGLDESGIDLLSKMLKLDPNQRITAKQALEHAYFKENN
Serine/threonine-protein kinase 10, sequence (O94804 whole entry, looked up): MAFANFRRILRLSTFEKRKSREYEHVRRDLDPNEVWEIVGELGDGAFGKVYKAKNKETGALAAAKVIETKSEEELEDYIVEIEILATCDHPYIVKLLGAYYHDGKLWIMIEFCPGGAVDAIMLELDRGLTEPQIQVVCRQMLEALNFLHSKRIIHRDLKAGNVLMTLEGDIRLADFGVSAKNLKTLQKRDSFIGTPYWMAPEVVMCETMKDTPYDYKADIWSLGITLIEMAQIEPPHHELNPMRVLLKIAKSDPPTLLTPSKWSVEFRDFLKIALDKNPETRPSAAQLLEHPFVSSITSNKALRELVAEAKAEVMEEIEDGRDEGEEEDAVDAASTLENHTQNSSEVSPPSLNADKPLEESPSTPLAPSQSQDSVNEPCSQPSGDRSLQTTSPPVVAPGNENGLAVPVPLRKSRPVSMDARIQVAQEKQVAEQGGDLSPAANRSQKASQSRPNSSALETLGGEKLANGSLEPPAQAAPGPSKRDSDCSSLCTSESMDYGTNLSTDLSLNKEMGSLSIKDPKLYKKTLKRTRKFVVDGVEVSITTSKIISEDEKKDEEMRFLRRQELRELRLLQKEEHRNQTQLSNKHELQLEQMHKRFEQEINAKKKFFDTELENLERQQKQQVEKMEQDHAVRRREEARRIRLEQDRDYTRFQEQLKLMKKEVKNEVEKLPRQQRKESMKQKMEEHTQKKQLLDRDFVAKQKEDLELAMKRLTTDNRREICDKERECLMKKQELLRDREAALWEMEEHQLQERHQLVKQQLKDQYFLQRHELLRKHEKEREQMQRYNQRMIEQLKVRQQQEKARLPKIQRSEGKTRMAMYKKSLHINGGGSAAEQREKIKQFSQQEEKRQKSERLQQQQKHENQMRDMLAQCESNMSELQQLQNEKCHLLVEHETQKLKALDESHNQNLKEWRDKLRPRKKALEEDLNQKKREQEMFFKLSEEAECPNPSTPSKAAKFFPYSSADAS
Calcium/calmodulin-dependent protein kinase type 1D (Homo sapiens), sequence (Q8IU85 whole entry, looked up): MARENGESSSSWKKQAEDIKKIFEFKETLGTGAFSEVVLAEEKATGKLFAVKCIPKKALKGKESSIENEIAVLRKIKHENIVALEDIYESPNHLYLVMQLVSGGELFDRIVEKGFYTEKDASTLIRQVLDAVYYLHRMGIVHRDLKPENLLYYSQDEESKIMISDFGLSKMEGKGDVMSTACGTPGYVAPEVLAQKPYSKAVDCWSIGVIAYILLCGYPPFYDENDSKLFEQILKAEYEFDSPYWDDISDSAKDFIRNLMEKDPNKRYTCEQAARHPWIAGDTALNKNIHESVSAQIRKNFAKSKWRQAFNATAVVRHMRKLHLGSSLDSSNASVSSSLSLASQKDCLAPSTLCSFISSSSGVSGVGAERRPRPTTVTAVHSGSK
Serine/threonine-protein kinase PAK 2 (Homo sapiens), sequence (Q13177 whole entry): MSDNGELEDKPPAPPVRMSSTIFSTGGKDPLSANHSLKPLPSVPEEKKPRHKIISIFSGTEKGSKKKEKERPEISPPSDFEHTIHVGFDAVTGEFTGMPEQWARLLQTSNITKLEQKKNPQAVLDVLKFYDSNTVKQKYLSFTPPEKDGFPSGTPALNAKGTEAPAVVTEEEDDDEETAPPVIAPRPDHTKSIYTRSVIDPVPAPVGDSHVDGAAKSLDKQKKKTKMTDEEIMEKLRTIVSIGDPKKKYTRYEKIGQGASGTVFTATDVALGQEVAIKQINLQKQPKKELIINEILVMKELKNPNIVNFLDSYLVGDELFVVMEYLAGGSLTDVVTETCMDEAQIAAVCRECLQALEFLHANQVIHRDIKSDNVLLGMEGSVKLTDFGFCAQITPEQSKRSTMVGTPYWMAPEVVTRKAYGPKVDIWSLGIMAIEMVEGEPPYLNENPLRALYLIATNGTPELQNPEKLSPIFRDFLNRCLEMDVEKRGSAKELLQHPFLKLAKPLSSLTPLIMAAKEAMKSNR
Mitogen-activated protein kinase 14 (Homo sapiens), sequence (Q16539 whole entry): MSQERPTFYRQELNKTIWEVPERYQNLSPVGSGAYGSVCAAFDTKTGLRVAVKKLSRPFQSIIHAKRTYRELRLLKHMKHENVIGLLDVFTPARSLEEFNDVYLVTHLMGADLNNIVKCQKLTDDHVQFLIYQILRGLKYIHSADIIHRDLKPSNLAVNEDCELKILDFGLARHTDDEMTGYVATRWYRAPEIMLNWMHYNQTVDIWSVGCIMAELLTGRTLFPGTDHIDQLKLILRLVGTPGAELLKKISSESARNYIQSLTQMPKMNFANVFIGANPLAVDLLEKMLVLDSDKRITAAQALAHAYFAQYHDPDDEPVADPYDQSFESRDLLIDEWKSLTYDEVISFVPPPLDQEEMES

SMILES: Cc1cc(NC(=O)c2cccc(S(F)(F)(F)(F)F)c2)cc(-n2ccn3nc(-c4cccnc4)cc23)c1 [BAY-309]
- residual activity [1, 45]: 49.2%
- residual activity [2, 45]: 100%
- residual activity [3, 45]: 100%
- residual activity [4, 45]: 100%
- residual activity [5, 45]: 100%
- residual activity [6, 45]: 94.9%
- residual activity [7, 45]: 100%
- residual activity [8, 45]: 99.6%
- residual activity [9, 45]: 95.4%
- residual activity [10, 45]: 100%
- residual activity [11, 45]: 100%
- residual activity [12, 45]: 95.1%
- residual activity [13, 45]: 100%
- residual activity [14, 45]: 99.9%
- residual activity [15, 45]: 95.8%
- residual activity [16, 45]: 100%
- residual activity [17, 45]: 100%
- residual activity [18, 45]: 100%
- residual activity [19, 45]: 100%
- residual activity [20, 45]: 100%
- residual activity [21, 45]: 95.3%
- residual activity [22, 45]: 26.8%
- residual activity [23, 45]: 100%
- residual activity [24, 45]: 100%
- residual activity [25, 45]: 82%
- residual activity [26, 45]: 91.4%
- residual activity [27, 45]: 100%
- residual activity [28, 45]: 41.7%
- residual activity [29, 45]: 100%
- residual activity [30, 45]: 100%
- residual activity [31, 45]: 71.8%
- residual activity [32, 45]: 100%
- residual activity [33, 45]: 96%
- residual activity [34, 45]: 30.3%
- residual activity [35, 45]: 100%
- residual activity [36, 45]: 100%
- residual activity [37, 45]: 66.6%
- residual activity [38, 45]: 100%
- residual activity [39, 45]: 72.1%
- residual activity [40, 45]: 100%
- residual activity [41, 45]: 100%
- residual activity [42, 45]: 100%
- residual activity [43, 45]: 100%
- inhibition [44]: 36.8%

SMILES: Cc1cc(C)c(-n2ccn3nc(-c4cccnc4)cc23)cc1NC(=O)c1cc(C#N)cc(S(F)(F)(F)(F)F)c1 [BAY-826]
- residual activity [1, 46]: 31.4%
- residual activity [2, 46]: 68.6%
- residual activity [3, 46]: 90.9%
- residual activity [4, 46]: 84.5%
- residual activity [5, 46]: 80.5%
- residual activity [6, 46]: 71.6%
- residual activity [7, 46]: 100%
- residual activity [8, 46]: 89%
- residual activity [9, 46]: 89.9%
- residual activity [10, 46]: 86.2%
- residual activity [11, 46]: 82.5%
- residual activity [12, 46]: 85.5%
- residual activity [13, 46]: 82.6%
- residual activity [14, 46]: 87.8%
- residual activity [15, 46]: 100%
- residual activity [16, 46]: 62.3%
- residual activity [17, 46]: 84.1%
- residual activity [18, 46]: 100%
- residual activity [19, 46]: 50.9%
- residual activity [20, 46]: 73.2%
- residual activity [21, 46]: 89%
- residual activity [22, 46]: 1.8%
- residual activity [23, 46]: 85.1%
- residual activity [24, 46]: 93.4%
- residual activity [25, 46]: 78.6%
- residual activity [26, 46]: 100%
- residual activity [27, 46]: 0%
- residual activity [28, 46]: 61.2%
- residual activity [29, 46]: 89.8%
- residual activity [30, 46]: 70.1%
- residual activity [31, 46]: 90.9%
- residual activity [32, 46]: 78.3%
- residual activity [33, 46]: 92.8%
- residual activity [34, 46]: 100%
- residual activity [35, 46]: 100%
- residual activity [36, 46]: 82.7%
- residual activity [37, 46]: 84.4%
- residual activity [38, 46]: 80.4%
- residual activity [39, 46]: 81.5%
- residual activity [40, 46]: 60.1%
- residual activity [41, 46]: 92%
- residual activity [42, 46]: 97.4%
- residual activity [43, 46]: 94.3%
- inhibition [44]: 14.4%
